Tested on: P815
Assay: Cytotoxicity against P815 tumor cell line
Type: functional
Details: Mus musculus, read-out: ID50 (the source's name)

Structure (SMILES) | IC50 [µg/mL]
O=C([O-])C1OC(OC[C@H]2OC(n3cc(F)c(=O)[nH]c3=O)[C@H](O)[C@@H]2O)[C@H](O)[C@@H](O)[C@@H]1O.[Na+] (some centres not stated) | 6
Nc1nc(=O)n(C2O[C@H](CO[C@@H]3OC(C(=O)[O-])[C@@H](O)[C@H](O)[C@H]3O)[C@@H](O)[C@H]2O)cc1F.[Na+] (some centres not stated) | 6
